Measured values from patent US6541002B1, “Compositions and methods for providing a protein to a virion” (Thomas Jefferson University, priority 1998, dated 2003).
No end group written: not given here.

Target: HIV-1 Vpr (Human immunodeficiency virus type 1 group M subtype B, UniProt P12520)
Conditions: heptapeptide fused to Gal4AD, co-expressed with Vpr-Gal4 DNA-binding domain chimera
Text: DNA fragments encoding the variable heptapeptide region of the coat protein of individual phage isoforms selected from the library described herein were amplified using PCR from purified phage DNA. Amplified peptide-encoding DNA was cloned in frame between the EcoRI and BglII restriction endonuclease sites of pGADGH for use in yeast two-hybrid system experiments.
The yeast reporter strain, HF7c, which comprises two Gal4-inducible reporter genes, namely HIS3 and LacZ, has been described (BouHamdan et al., 1996, J. Virol. 70:697-704). HF7c cells were transformed with two plasmids, pGB-UDG and pGA-Vpr, using known methods to yield double transformant HF7c cells. […] Cells obtained from these plates were used in a liquid culture assay with yeast reporter strain SFY526 to detect beta-galactosidase activity, as described (BouHamdan et al., 1996, J. Virol. 70:697-704; Bartel et al., 1993, Biotech. 14:920-924). […] was used as the substrate in the assay, and each assay was performed in triplicate.
Intracellular interaction of ten of the heptapeptide regions listed in Table 2 with HIV-1 Vpr was further tested using the yeast two-hybrid system.

Substance | ability of double transformant HF7c cells to grow on histidine-deficient medium
GHTWWTF [Pep#7] | better able to grow on histidine-deficient medium than the other double transformants tested
KPKWAIV [Pep#2] | unable to grow on histidine-deficient medium
KPMWWHF [Pep#9] | better able to grow on histidine-deficient medium than the other double transformants tested
LPPWAAF [Pep#6] | better able to grow on histidine-deficient medium than the other double transformants tested
SAPWWTF [Pep#5] | better able to grow on histidine-deficient medium than those which expressed chimeric proteins having an amino acid sequence identified in Table 2 as Pep#1 (SEQ ID NO: 16), Pep#8 (SEQ ID NO: 17), or Pep#10 (SEQ ID NO: 18)
SWWSFTP [Pep#1] | able to grow on histidine-deficient medium
TTWWWQF [Pep#4] | better able to grow on histidine-deficient medium than those which expressed chimeric proteins having an amino acid sequence identified in Table 2 as Pep#1 (SEQ ID NO: 16), Pep#8 (SEQ ID NO: 17), or Pep#10 (SEQ ID NO: 18)
WHDFPLV [Pep#3] | better able to grow on histidine-deficient medium than the other double transformants tested
WHSFPDS [Pep#10] | able to grow on histidine-deficient medium
WHSFPPP [Pep#8] | able to grow on histidine-deficient medium
